Measurements: US20220375563A1, “METHOD AND APPARATUS FOR INDIVIDUALIZED ADMINISTRATION OF MEDICAMENTS FOR ENHANCED SAFE DELIVERY WITHIN A THERAPEUTIC RANGE” (UNIVERSITY OF MARYLAND, BALTIMORE, priority 2019, published 2022)
Read-outs that look alike come from different tables or passages of the source.

Legend:
[1] = cited from earlier work; for Concentration range: Table 1 anti-epileptics, * uncertain reference range, ** well defined toxic range
[2] = Therapeutic index (ratio between upper/lower bounds of therapeutic window); assay type: in vivo
Description: In various example embodiments, dosing is determined using some or all the steps of method 300 for medicaments listed in the following tables. For each medicament listed, a concentration window W or therapeutic index is listed in a third column. The therapeutic index (TI, also referred to as therapeutic ratio) is a quantitative measurement of the relative safety of a drug. It is a comparison of the amount of a therapeutic agent that causes the therapeutic effect to the amount that causes toxicity. As proposed herein, a cost function g(y) is based, at least in part, on a value in this third column. The Koopman Expectation is used in Equation 11 or Equation 12 with a quadrature procedure to deduce an optimum range or subset of the dosing range listed in the second column.

[3] = Table 1 anti-epileptics; printed in place of a dose range; cited from earlier work

| SMILES | Concentration range [1] | Therapeutic index ([2]; Table 7 antiepileptics) | Therapeutic window ([1]; Table 7 antiepileptics) | other results |
| --- | --- | --- | --- | --- |
| CCC1(c2ccccc2)C(=O)NCNC1=O [Primidone] | (5-10 mg/L) | – | – | – |
| O=C1NC(=O)C(c2ccccc2)(c2ccccc2)N1 [Phenytoin] | (10-20 mg/L) | 2 | 10 to 20 mg/L | Dose range: PK note [3]: (non-linear PK) |
| CCC1(C)CC(=O)NC1=O (stereo not shown) [Ethosuximide] | (40-100 mg/L) | – | – | – |
| C=CC(N)CCC(=O)O (stereo not shown) [Vigabatrin] | (0.8-36 mg/L) | – | – | – |
| CN1C(=O)CC(=O)N(c2ccccc2)c2cc(Cl)ccc21 [Clobazam] | (0.03-0.3 mg/L) | – | – | – |
| O=C1CN=C(c2ccccc2Cl)c2cc([N+](=O)[O-])ccc2N1 [Clonazepam] | (0.02-0.07 mg/L) | – | – | – |
| CO[C@H]1C[C@@H]2CC[C@@H](C)[C@@](O)(O2)C(=O)C(=O)N2CCCC[C@H]2C(=O)O[C@H]([C@H](C)C[C@@H]2CC[C@@H](OCCO)[C@H](OC)C2)CC(=O)[C@H](C)/C=C(\C)[C@@H](O)[C@@H](OC)C(=O)[C@H](C)C[C@H](C)/C=C/C=C/C=C/1C [Everolimus] | – | – | – | Small change in concentration may lead to failure/serious AE (concentration range) ([1]; Table 4 immunosuppressants): (3-8 ng/mL) |
| Cc1ccsc1C(=CCCN1CCC[C@@H](C(=O)O)C1)c1sccc1C [Tiagabine] | (0.02-0.2 mg/L)* | 10 | 0.02 to 0.2 mg/L | – |
| NC(=O)N1c2ccccc2C=Cc2ccccc21 [Carbamazepine] | – | 3 | 4 to 12 mg/L | – |
| CC(=O)CC(c1ccccc1)c1c(O)c2ccccc2oc1=O (stereo not shown) [Warfarin] | – | – | – | Therapeutic index ([2]; Table 5 anticoagulants): 1.5 |
| COc1c(C)c2c(c(O)c1C/C=C(\C)CCC(=O)O)C(=O)OC2 [Mycophenolate] | – | – | – | Small change in concentration may lead to failure/serious AE (exposure range) ([1]; Table 4 immunosuppressants, not in label): (30-60 mg*h/L |
| CCC1(c2ccccc2)C(=O)NC(=O)NC1=O [Phenobarbital] | (10-40 mg/L) | – | – | – |
| NCC1(CC(=O)O)CCCCC1 [Gabapentin] | (2-20 mg/L) | – | – | – |
| CC1CNc2c(cccc2S(=O)(=O)N[C@@H](CCCNC(=N)N)C(=O)N2CC[C@@H](C)C[C@@H]2C(=O)O)C1 (stereo partly shown) [Argatroban] | – | – | – | Therapeutic index ([2]; Table 5 anticoagulants): 1.7 |
| CC1(C)O[C@@H]2[C@@H](CO[C@@]3(COS(N)(=O)=O)OC(C)(C)O[C@@H]23)O1 [Topiramate] | (5-20 mg/L) | 4 | 5 to 20 mg/L | – |
| CCCC(CCC)C(=O)O [Valproic acid] | (50-100 mg/L) | 2 | 50 to 100 mg/L | Dose range: PK note [3]: (non-linear PK) |
| CO[C@H]1C[C@@H]2CC[C@@H](C)[C@@](O)(O2)C(=O)C(=O)N2CCCC[C@H]2C(=O)O[C@H]([C@H](C)C[C@@H]2CC[C@@H](O)[C@H](OC)C2)CC(=O)[C@H](C)/C=C(\C)[C@@H](O)[C@@H](OC)C(=O)[C@H](C)C[C@H](C)/C=C/C=C/C=C/1C [Sirolimus] | – | – | – | Small change in concentration may lead to failure/serious AE (concentration range) ([1]; Table 4 immunosuppressants): (12-20 ng/mL) |
| CC[C@@H](C(N)=O)N1CCCC1=O [Levetiracetam] | (12-46 mg/L) | – | – | – |
| [H]/N=C(/N)c1ccc(NCc2nc3cc(C(=O)N(CCC(=O)O)c4ccccn4)ccc3n2C)cc1 [Dabigatran] | – | – | – | Therapeutic index ([2]; Table 5 anticoagulants): 1.7; Concentration/biomarker range ([1]; Table 2 anticoagulants): (60-200 mg/L or |
| Nc1nnc(-c2cccc(Cl)c2Cl)c(N)n1 [Lamotrigine] | (3-14 mg/L) | 4.7 | 3 to 14 mg/L | – |
| NC(=O)OCC(COC(N)=O)c1ccccc1 [Felbamate] | (30-60 mg/L)* | 2 | 30 to 60 mg/L | – |
| C=C[C@H]1C[N@@]2CC[C@H]1C[C@@H]2[C@@H](O)c1ccnc2ccc(OC)cc12 [Quinidine] | – | – | – | Therapeutic index ([2]; Table 6 antiarrhythmics): 2.5; Concentration/biomarker range ([1]; Table 3 antiarrhythmics): (2-5 mg/L); Therapeutic window ([1]; Table 6 antiarrhythmics): 2 to 5 mg/L |
| NS(=O)(=O)Cc1noc2ccccc12 [Zonisamide] | (10-40 mg/L)** | 4 | 10 to 40 mg/L | – |
| C=CC[C@@H]1/C=C(\C)C[C@H](C)C[C@H](OC)[C@H]2O[C@@](O)(C(=O)C(=O)N3CCCC[C@H]3C(=O)O[C@H](/C(C)=C/[C@@H]3CC[C@@H](O)[C@H](OC)C3)[C@H](C)[C@@H](O)CC1=O)[C@H](C)C[C@@H]2OC [Tacrolimus] | – | – | – | Small change in concentration may lead to failure/serious AE (concentration range) ([1]; Table 4 immunosuppressants): (5-15 ng/mL) |
| C[C@H]1O[C@@H](O[C@H]2[C@@H](O)C[C@H](O[C@H]3[C@@H](O)C[C@H](O[C@H]4CC[C@@]5(C)[C@H](CC[C@@H]6[C@@H]5C[C@@H](O)[C@]5(C)[C@@H](C7=CC(=O)OC7)CC[C@]65O)C4)O[C@@H]3C)O[C@@H]2C)C[C@H](O)[C@@H]1O [Digoxin] | – | – | – | Concentration/biomarker range ([1]; Table 3 antiarrhythmics, AF): (0.8-2: AF; Concentration/biomarker range ([1]; Table 3 antiarrhythmics, Cl): 0.5-1: Cl) |
